Reference: PubChem BioAssay AID248 (DTP/NCI, 2004)
Where “and” joins values, the source holds several entries; their conditions need not be identical. Equal values may be shown once. Inconclusive results and toxic doses are left out. Rule as the data show it: active = T/C of 150% or more; inactive = T/C below 125%.

Tested on: L1210 leukemia ip in BDF1 mice, survival T/C
Assay: NCI In Vivo Anticancer Drug Screen. Data for tumor model L1210 Leukemia (intraperitoneal) in B6D2F1 (BDF1) mice
Conditions: endpoint: mean survival time, higher = longer survival
Procedure, shortened: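 In this screen, tumor-bearing mice given compound are compared to those given vehicle, and their survival values are reported as a treated-to-control quotient.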

[1] = dose: 100.0 mg/kg/injection, schedule: Q01DX009 (ip), vehicle: saline with Tween-80
[2] = dose: 200.0 mg/kg/injection, schedule: Q01DX009 (ip), vehicle: saline with Tween-80
[3] = dose: 100.0 mg/kg/injection, schedule: Q04DX003 (ip), vehicle: Klucel (hydroxypropylcellulose) (HPC)
[4] = dose: 200.0 mg/kg/injection, schedule: Q04DX003 (ip), vehicle: Klucel (hydroxypropylcellulose) (HPC)
[5] = dose: 400.0 mg/kg/injection, schedule: Q04DX003 (ip), vehicle: Klucel (hydroxypropylcellulose) (HPC)
[6] = dose: 100.0 mg/kg/injection, schedule: Q01DX009 (ip), vehicle: saline
[7] = dose: 100.0 mg/kg/injection, schedule: Q01DX009 (ip), vehicle: Klucel (hydroxypropylcellulose) (HPC)
[8] = dose: 200.0 mg/kg/injection, schedule: Q01DX009 (ip), vehicle: Klucel (hydroxypropylcellulose) (HPC)
[9] = dose: 100.0 mg/kg/injection, schedule: Q04DX002 (ip), vehicle: saline
[10] = dose: 200.0 mg/kg/injection, schedule: Q04DX002 (ip), vehicle: saline
[11] = dose: 400.0 mg/kg/injection, schedule: Q01DX009 (ip), vehicle: Klucel (hydroxypropylcellulose) (HPC)
[12] = dose: 100.0 mg/kg/injection, schedule: Q01DX001 (ip), vehicle: saline
[13] = dose: 200.0 mg/kg/injection, schedule: Q01DX001 (ip), vehicle: saline
[14] = dose: 400.0 mg/kg/injection, schedule: Q01DX001 (ip), vehicle: saline
[15] = dose: 50.0 mg/kg/injection, schedule: Q01DX009 (ip), vehicle: saline with Tween-80
[16] = dose: 100.0 mg/kg/injection, schedule: Q04DX003 (ip), vehicle: saline with Tween-80
[17] = dose: 200.0 mg/kg/injection, schedule: Q04DX003 (ip), vehicle: saline with Tween-80
[18] = dose: 400.0 mg/kg/injection, schedule: Q04DX003 (ip), vehicle: saline with Tween-80

Measured: T/C

O=C(NCc1cnccn1)c1ccccc1
inactive: [1] 104 % of control | [2] 98 % of control | dose: 400.0 mg/kg/injection, schedule: Q01DX009 (ip), vehicle: saline with Tween-80 92 % of control

Cc1cc(O)c2c(c1O)C(=O)C13C(=C2O)C(=O)C2C(O)C1C1C(O)C3C(=O)C3=C(O)c4c(O)cc(C)c(O)c4C(=O)C321 (stereo not given)
inactive: dose: 12.5 mg/kg/injection, schedule: Q04DX003 (ip), vehicle: saline with Tween-80 93 % of control | dose: 25.0 mg/kg/injection, schedule: Q04DX003 (ip), vehicle: saline with Tween-80 106 % of control

CCOC(=O)COc1cc(Cl)c(S(=O)(=O)F)cc1Cl
inactive: [3] 96 % of control | [4] 104 % of control | [5] 91 % of control

CCCCC(CC)CNCC(O)CNCC(CC)CCCC (stereo not given)
inactive: dose: 50.0 mg/kg/injection, schedule: Q01DX009 (ip), vehicle: Klucel (hydroxypropylcellulose) (HPC) 88 % of control | dose: 100.0 mg/kg/injection, schedule: Q04DX002 (ip), vehicle: Klucel (hydroxypropylcellulose) (HPC) 108 % of control | dose: 200.0 mg/kg/injection, schedule: Q04DX002 (ip), vehicle: Klucel (hydroxypropylcellulose) (HPC) 101 % of control

COC(=O)C1(C)CCC(c2ccc(OC)cc2)CC1=O (stereo not given)
inactive: [6] 93 % of control | dose: 100.0 mg/kg/injection, schedule: Q04DX003 (ip), vehicle: saline 92 % of control | dose: 200.0 mg/kg/injection, schedule: Q01DX009 (ip), vehicle: saline 88 % of control | dose: 200.0 mg/kg/injection, schedule: Q04DX003 (ip), vehicle: saline 95 % of control | dose: 400.0 mg/kg/injection, schedule: Q01DX009 (ip), vehicle: saline 90 % of control | dose: 400.0 mg/kg/injection, schedule: Q04DX003 (ip), vehicle: saline 88 % of control

O=C(Nc1cccc(C(F)(F)F)c1)Oc1ccccc1F
inactive: [7] 91 % of control | [8] 92 % of control

N#CSc1ncnc2nc[nH]c12
inactive: dose: 3.5 mg/kg/injection, schedule: Q01DX Z (ip), vehicle: water 104 % of control | dose: 5.3 mg/kg/injection, schedule: Q01DX Z (ip), vehicle: water 104 % of control | dose: 6.0 mg/kg/injection, schedule: Q01DX Z (ip), vehicle: water 105 % of control | dose: 8.0 mg/kg/injection, schedule: Q01DX Z (ip), vehicle: water 107 % of control | dose: 8.8 mg/kg/injection, schedule: Q01DX Z (ip), vehicle: water 114 % of control | dose: 12.0 mg/kg/injection, schedule: Q01DX Z (ip), vehicle: water 105 % of control | dose: 13.3 mg/kg/injection, schedule: Q01DX Z (ip), vehicle: water 108 % of control | dose: 20.0 mg/kg/injection, schedule: Q01DX Z (ip), vehicle: water 122 % of control

Cc1cn(C2CC(O)C(COP(=O)(N3CC3(C)C)N3CC3(C)C)O2)c(=O)[nH]c1=O (stereo not given)
inactive: dose: 50.0 mg/kg/injection, schedule: Q04DX002 (ip), vehicle: saline 94 % of control | [9] 105 % of control | [10] 123 % of control

C[Si](C)(C#CC1(O)CCCCC1)C(Cl)Cl
inactive: [3] 102 % of control | [4] 101 % of control | [5] 109 % of control

Cc1cnc2c(N)nc(-c3ccccc3)nc2n1
inactive: dose: 100.0 mg/kg/injection, schedule: Q01DX001 (ip), vehicle: Klucel (hydroxypropylcellulose) (HPC) 94 % of control | dose: 200.0 mg/kg/injection, schedule: Q01DX001 (ip), vehicle: Klucel (hydroxypropylcellulose) (HPC) 103 % of control | dose: 400.0 mg/kg/injection, schedule: Q01DX001 (ip), vehicle: Klucel (hydroxypropylcellulose) (HPC) 100 % of control

Cc1cc(N(CCOS(C)(=O)=O)CCOS(C)(=O)=O)ccc1C=Nc1cccc(Cl)c1
inactive: dose: 20.0 mg/kg/injection, schedule: Q04DX003 (ip), vehicle: Klucel (hydroxypropylcellulose) (HPC) 107 % of control | dose: 40.0 mg/kg/injection, schedule: Q04DX003 (ip), vehicle: Klucel (hydroxypropylcellulose) (HPC) 115 % of control | dose: 80.0 mg/kg/injection, schedule: Q04DX003 (ip), vehicle: Klucel (hydroxypropylcellulose) (HPC) 107 % of control | [3] 120 % of control

OCCC/C=C/CCI
inactive: [7] 93 % of control | [3] 112 % of control | [8] 90 % of control | [4] 109 % of control | [11] 98 % of control | [5] 91 % of control

CC[n+]1c(C=Nc2ccc(N(C)C)cc2)sc2ccccc21
inactive: dose: 3.13 mg/kg/injection, schedule: Q04DX003 (ip), vehicle: carboxymethylcellulose (CMC) 107 % of control | dose: 6.25 mg/kg/injection, schedule: Q04DX003 (ip), vehicle: carboxymethylcellulose (CMC) 98 % of control | dose: 12.5 mg/kg/injection, schedule: Q04DX002 (ip), vehicle: carboxymethylcellulose (CMC) 104 % of control and 106 % of control | dose: 12.5 mg/kg/injection, schedule: Q04DX003 (ip), vehicle: carboxymethylcellulose (CMC) 96 % of control and 100 % of control | dose: 25.0 mg/kg/injection, schedule: Q04DX002 (ip), vehicle: carboxymethylcellulose (CMC) 109 % of control and 116 % of control

CN(C)c1ccc(N=Nc2cccc(Cl)c2)cc1
inactive: [7] 97 % of control | [8] 97 % of control | [11] 90 % of control

Cc1ccc(C)c(NC(=O)Oc2ccccc2F)c1
inactive: [7] 101 % of control | [3] 98 % of control | [8] 91 % of control | [4] 113 % of control | [5] 101 % of control

C=C1C(=O)O[C@@H]2/C=C(\C)CC/C=C(/C)CC[C@@H]12
inactive: dose: 50.0 mg/kg/injection, schedule: Q01DX001 (ip), vehicle: saline 101 % of control | [12] 86 % of control | [13] 93 % of control | [14] 86 % of control

CSc1ccc(OC(=O)Nc2cc([N+](=O)[O-])ccc2F)cc1C
inactive: dose: 100.0 mg/kg/injection, schedule: Q04DX002 (ip), vehicle: saline with Tween-80 89 % of control | [9] 92 % of control | dose: 200.0 mg/kg/injection, schedule: Q04DX002 (ip), vehicle: saline with Tween-80 93 % of control | [10] 110 % of control | dose: 400.0 mg/kg/injection, schedule: Q04DX002 (ip), vehicle: saline with Tween-80 91 % of control | dose: 800.0 mg/kg/injection, schedule: Q04DX002 (ip), vehicle: saline with Tween-80 93 % of control

ON=C1CCSCC1
inactive: [12] 107 % of control | [13] 98 % of control | [14] 108 % of control

OC1CCCCC1C1CCCCC1 (stereo not given)
inactive: [15] 94 % of control | [1] 94 % of control | [9] 121 % of control | dose: 300.0 mg/kg/injection, schedule: Q04DX002 (ip), vehicle: saline 107 % of control | dose: 400.0 mg/kg/injection, schedule: Q04DX002 (ip), vehicle: saline 100 % of control

CONS(=O)c1ccc([N+](=O)[O-])cc1 (stereo not given)
inactive: [7] 98 % of control | [8] 96 % of control | [11] 100 % of control

CC(=O)/C(N=Nc1ccc(S(=O)(=O)c2ccc(N=N/C(C(C)=O)=C(/C)O)cc2)cc1)=C(\C)O
inactive: [16] 100 % of control | [17] 93 % of control | [18] 96 % of control

CCN(CC)CCOC(=O)c1ccc(C(Cl)Cl)cc1
inactive: dose: 50.0 mg/kg/injection, schedule: Q01DX009 (ip), vehicle: saline 88 % of control | [6] 88 % of control

Cc1cccc(C)c1NC(=O)NC(C)C
inactive: [7] 106 % of control | [3] 93 % of control | [8] 94 % of control | [4] 94 % of control | [11] 99 % of control | [5] 93 % of control

NCc1ccc(NC(=O)c2ccc(C(=O)Nc3ccc(CN)cc3)c(N)c2)cc1
inactive: dose: 21.0 mg/kg/injection, schedule: Q01DX Z (ip), vehicle: water 100 % of control | dose: 42.0 mg/kg/injection, schedule: Q01DX Z (ip), vehicle: water 98 % of control

Cc1ccc(NC(=O)Nc2ccc(C)c(NC(=O)Nc3ccc(C)c(Cl)c3)c2)cc1Cl
inactive: [15] 90 % of control | [1] 88 % of control | [16] 88 % of control | [2] 94 % of control

O=C(Nc1ccccc1)C1C2C=CC(C2)C1C(=O)Nc1ccccc1 (stereo not given)
inactive: [16] 93 % of control and 103 % of control | [17] 95 % of control and 87 % of control | [18] 91 % of control
